Source: patent publication US10766894B2, “Aza-indazole compounds for use in tendon and/or ligament injuries” (NOVARTIS AG, priority 2016, dated 2020)
Read-outs that look alike come from different tables or passages of the source.

Experiments:
[1] = test system: Scleraxis (Scx) gene expression in rat tail tendon fascicles; assay: Ex vivo assay, tendon fascicles, Scleraxis mRNA (qPCR); type: cell-based, Sprague Dawley rat; details: 96 h
[2] = test system: collagen type 1 (Col1a2) gene expression in rat tail tendon fascicles; assay: Ex vivo assay, tendon fascicles, collagen type 1 mRNA (qPCR); type: cell-based, Sprague Dawley rat; details: 96 h
[3] = test system: Tenomodulin (Tnmd) gene expression in rat tail tendon fascicles; assay: Ex vivo assay, tendon fascicles, Tenomodulin mRNA (qPCR); type: cell-based, Sprague Dawley rat; details: 96 h
[4] = test system: mouse immortalized TT-D6 Scx-luciferase (ScxL) cell line; transcriptional activation of Scleraxis (Scx) gene; assay: SCX-LUC in vitro assay (scleraxis promoter luciferase reporter); type: cell-based; details: Mus musculus, 96 h
[5] = Examples table, rat tail tendon fascicles, four days, delta-delta Ct, read-out: Ex vivo Scx (EC50 μM)
[6] = Examples table, rat tail tendon fascicles, four days, delta-delta Ct, read-out: Ex vivo Col1a2 (EC50 μM)
[7] = Examples table, rat tail tendon fascicles, four days, delta-delta Ct, read-out: Ex vivo Tnmd (EC50 μM)
[8] = Examples table, TT-D6 Scx-luciferase cells, 1 ng/ml TGFβ1, four days, read-out: Scx-Luc (EC50 μM)
[9] = Table 1, TT-D6 Scx-luciferase cells, 1 ng/ml TGFβ1, four days, read-out: Scx-Luc (EC50 uM)
[10] = Rattus norvegicus, read-out: Ex vivo SCX (EC50 uM)
[11] = Rattus norvegicus, read-out: Ex vivo Col1a2 (EC50 uM)
[12] = Rattus norvegicus, read-out: Ex vivo Tnmd (EC50 uM)

SMILES | EC50 [1, 5] | EC50 [2, 6] | EC50 [3, 7] | EC50 [4, 8] | also measured
Cc1cc(S(=O)(=O)N2CC3CCCC3C2)ccc1-c1ccc2[nH]nc(N)c2n1 (stereo not shown) [Example 21, 5-(4-((hexahydrocyclopenta[c]pyrrol-2(1H)-yl)sulfonyl)-2-methylphenyl)-1H-pyrazolo[4,3-b]pyridin-3-amine] | 4.93 µM | 3.71 µM | 3.51 µM | 0.598 µM | 
Nc1n[nH]c2ccc(-c3ccc(S(=O)(=O)NC4CS(=O)(=O)C4)cc3Cl)nc12 [Example 92, 4-(3-amino-1H-pyrazolo[4,3-b]pyridin-5-yl)-3-chloro-N-(1,1-dioxidothietan-3-yl)benzenesulfonamide] | 4.89 µM | 1.35 µM | 6.28 µM | 0.968 µM | 
Nc1n[nH]c2ccc(-c3ccc(NS(=O)(=O)c4ccc(Cl)cc4)cc3Cl)nc12 [Example 3, N-(4-(3-amino-1H-pyrazolo[4,3-b]pyridin-5-yl)-3-chlorophenyl)-4-chlorobenzenesulfonamide] | > 10 µM | 3.08 µM | 1.15 µM | 0.801 µM | 
Nc1n[nH]c2ccc(-c3ccc(S(=O)(=O)N4CC(F)(F)C[C@H]4CO)cc3Cl)nc12 [Example 18, (S)-(1-((4-(3-amino-1H-pyrazolo[4,3-b]pyridin-5-yl)-3-chlorophenyl)sulfonyl)-4,4-difluoropyrrolidin-2-yl)methanol] | 1.77 µM | 1.83 µM | 0.75 µM | 0.764 µM | 
N#C[C@H]1CC(=O)CC[C@@H]1n1cc(C(N)=O)c(Nc2ccc(C(F)(F)F)cc2)n1 [reference compound] |  |  |  |  | EC50 ([1]; Table 1, rat tail tendon fascicles, four days, delta-delta Ct, read-out: Ex vivo SCX (EC50 uM)): 0.85 µM; EC50 ([2]; Table 1, rat tail tendon fascicles, four days, delta-delta Ct, read-out: Ex vivo Col1a2 (EC50 uM)): 0.94 µM; EC50 ([3]; Table 1, rat tail tendon fascicles, four days, delta-delta Ct, read-out: Ex vivo Tnmd (EC50 uM)): 4.83 µM; EC50 [4, 9]: 1.24 µM
Nc1n[nH]c2ccc(-c3ccc(S(=O)(=O)NC4CCS(=O)(=O)C4)cc3Cl)nc12 (stereo not shown) [Example 31, 4-(3-amino-1H-pyrazolo[4,3-b]pyridin-5-yl)-3-chloro-N-(1,1-dioxidotetrahydrothiophen-3-yl)benzenesulfonamide] | 2.31 µM | 2.63 µM | 2.76 µM | 0.411 µM | 
CS(=O)(=O)C1CN(S(=O)(=O)c2ccc(-c3ccc4[nH]nc(N)c4n3)c(Cl)c2)C1 [Example 93, 5-(2-chloro-4-((3-(methylsulfonyl)azetidin-1-yl)sulfonyl)phenyl)-1H-pyrazolo[4,3-b]pyridin-3-amine] | 2.95 µM | 1.76 µM | 3.52 µM | 5.74 µM | 
Nc1n[nH]c2ccc(-c3ccc(S(=O)(=O)NC4CCS(=O)(=O)CC4)cc3Cl)nc12 [Example 50, 4-(3-amino-1H-pyrazolo[4,3-b]pyridin-5-yl)-3-chloro-N-(1,1-dioxidotetrahydro-2H-thiopyran-4-yl)benzenesulfonamide] | 2.33 µM | 6.37 µM | 6.3 µM | > 10 µM | 
Nc1n[nH]c2ccc(-c3ccc(S(=O)(=O)NC4CCCCC4O)cc3Cl)nc12 (stereo not shown) [Example 12, 4-(3-amino-1H-pyrazolo[4,3-b]pyridin-5-yl)-3-chloro-N-(2-hydroxycyclohexyl)benzenesulfonamide] | 5.79 µM | 4.62 µM | 5.39 µM | 0.765 µM | 
Nc1n[nH]c2ccc(-c3ccc(S(=O)(=O)N4CC5CC5C4)cc3Cl)nc12 (stereo not shown) [Example 63, 5-(4-(3-azabicyclo[3.1.0]hexan-3-ylsulfonyl)-2-chlorophenyl)-1H-pyrazolo[4,3-b]pyridin-3-amine] | 2.12 µM | 3.34 µM | 4.6 µM | 1.24 µM | 
Cc1cc(Nc2nc(N[C@@H](C)c3ncc(F)cn3)ncc2Cl)n[nH]1 [reference compound] |  |  |  |  | EC50 [1, 10]: 3.37 µM; EC50 [2, 11]: 2.61 µM; EC50 [3, 12]: 3.3 µM; EC50 [4, 9]: 0.008 µM
O=C(Nc1nc2cccc(-c3ccc(CN4CCS(=O)(=O)CC4)cc3)n2n1)C1CC1 [reference compound] |  |  |  |  | EC50 [1, 10]: 5.34 µM; EC50 [2, 11]: 5.01 µM; EC50 [3, 12]: 6.93 µM; EC50 ([4]; read-out: Scx-Luc (EC50 uM)): 4.32 µM
Cc1cc(S(=O)(=O)N2CC(O)(C(F)(F)F)C2)ccc1-c1ccc2[nH]nc(N)c2n1 [Example 66, 1-((4-(3-amino-1H-pyrazolo[4,3-b]pyridin-5-yl)-3-methylphenyl)sulfonyl)-3-(trifluoromethyl)azetidin-3-ol] | 0.89 µM | 0.921 µM | 0.719 µM | 0.794 µM | 
O=C(Nc1nc2cccc(-c3ccc(OCc4cccnc4)cc3)n2n1)C1CC1 [reference compound] |  |  |  |  | EC50 [1, 10]: 0.36 µM; EC50 [2, 11]: 0.4 µM; EC50 [3, 12]: 5.99 µM; EC50 [4, 9]: 0.02 µM
Cc1cc(S(=O)(=O)NC2CC(F)(F)C2)ccc1-c1ccc2[nH]nc(N)c2n1 [Example 8, 4-(3-amino-1H-pyrazolo[4,3-b]pyridin-5-yl)-N-(3,3-difluorocyclobutyl)-3-methylbenzenesulfonamide] | 0.11 µM | 1.29 µM | 0.261 µM | 0.346 µM | 
CC[C@@](C)(Nc1ccnc(-c2c[nH]c3ncccc23)n1)C(=O)NCC(F)(F)F [reference compound] |  |  |  |  | EC50 [1, 10]: 1.65 µM; EC50 [2, 11]: 0.88 µM; EC50 [3, 12]: 1.77 µM; EC50 ([4]; read-out: Scx-Luc (EC50 uM)): 0.03 µM

SMILES | EC50 [1, 5] | EC50 [2, 6] | EC50 [3, 7] | EC50 [4, 8] | also measured
Nc1n[nH]c2ccc(-c3ccc(NS(=O)(=O)c4ccc5c(c4)OCO5)cc3Cl)nc12 [Example 11, N-(4-(3-amino-1H-pyrazolo[4,3-b]pyridin-5-yl)-3-chlorophenyl)benzo[d][1,3]dioxole-5-sulfonamide] | 3.05 µM | 2.46 µM | 0.841 µM | 0.801 µM | 
Nc1n[nH]c2ccc(-c3ccc(S(=O)(=O)N[C@H]4C[C@](O)(C(F)(F)F)C4)cc3Cl)nc12 [Example 1] | 2.11 µM | 1.59 µM | 0.804 µM | 0.183 µM | 
N#CC[C@H](C1CCCC1)n1cc(-c2ncnc3[nH]ccc23)cn1 [reference compound] |  |  |  |  | EC50 [1, 10]: 3.13 µM; EC50 [2, 11]: 2.64 µM; EC50 [3, 12]: 0.74 µM; EC50 ([4]; read-out: Scx-Luc (EC50 uM)): 0.12 µM
Nc1n[nH]c2ccc(-c3ccc(NS(=O)(=O)c4ccc5ccccc5c4)cc3Cl)nc12 [Example 82, N-(4-(3-amino-1H-pyrazolo[4,3-b]pyridin-5-yl)-3-chlorophenyl)naphthalene-2-sulfonamide] | > 10 µM | 7.27 µM | 4.87 µM | 2.61 µM | 
Cc1cc(S(=O)(=O)N[C@H]2C[C@@H](O)C2)ccc1-c1ccc2[nH]nc(N)c2n1 [Example 64, 4-(3-amino-1H-pyrazolo[4,3-b]pyridin-5-yl)-N-((1s,3s)-3-hydroxycyclobutyl)-3-methylbenzenesulfonamide] |  |  |  | 0.162 µM | 
Nc1n[nH]c2ccc(-c3ccc(NS(=O)(=O)c4ccc(F)c(F)c4)cc3Cl)nc12 [Example 10, N-(4-(3-amino-1H-pyrazolo[4,3-b]pyridin-5-yl)-3-chlorophenyl)-3,4-difluorobenzenesulfonamide] |  |  |  | 0.64 µM | 
Nc1n[nH]c2ccc(-c3ccc(NS(=O)(=O)c4cccc(C(F)(F)F)c4)cc3Cl)nc12 [Example 62, N-(4-(3-amino-1H-pyrazolo[4,3-b]pyridin-5-yl)-3-chlorophenyl)-3-(trifluoromethyl)benzenesulfonamide] |  |  |  | 1.3 µM | 
Nc1n[nH]c2ccc(-c3ccc(S(=O)(=O)Nc4cccc(Cl)c4Cl)cc3Cl)nc12 [Example 56, 4-(3-amino-1H-pyrazolo[4,3-b]pyridin-5-yl)-3-chloro-N-(2,3-dichlorophenyl)benzenesulfonamide] |  |  |  | 1.64 µM | 
Cc1cc(S(=O)(=O)NC2CCCC(O)C2)ccc1-c1ccc2[nH]nc(N)c2n1 (stereo not shown) [Example 65, 4-(3-amino-1H-pyrazolo[4,3-b]pyridin-5-yl)-N-(3-hydroxycyclohexyl)-3-methylbenzenesulfonamide] |  |  |  | 0.122 µM | 
Cc1cc(S(=O)(=O)N[C@H]2CC[C@H](O)CC2)ccc1-c1ccc2[nH]nc(N)c2n1 [Example 54, 4-(3-amino-1H-pyrazolo[4,3-b]pyridin-5-yl)-N-((1r,4r)-4-hydroxycyclohexyl)-3-methylbenzenesulfonamide] |  |  |  | 1.13 µM | 
Nc1n[nH]c2ccc(-c3ccc(S(=O)(=O)N4CC(F)(F)C4)cc3Cl)nc12 [Example 74, 5-(2-chloro-4-((3,3-difluoroazetidin-1-yl)sulfonyl)phenyl)-1H-pyrazolo[4,3-b]pyridin-3-amine] |  |  |  | 2.03 µM | 
C[C@@H](O)c1nc2cnc3[nH]ccc3c2n1[C@H]1CC[C@H](C#N)CC1 [reference compound] |  |  |  |  | EC50 [4, 9]: 2.69 µM
Cc1cc(S(=O)(=O)NC2CCCCC2O)ccc1-c1ccc2[nH]nc(N)c2n1 (stereo not shown) [Example 91, 4-(3-amino-1H-pyrazolo[4,3-b]pyridin-5-yl)-N-(2-hydroxycyclohexyl)-3-methylbenzenesulfonamide] |  |  |  | 1.81 µM | 
COc1ccc(S(=O)(=O)Nc2ccc(-c3ccc4[nH]nc(N)c4n3)c(Cl)c2)cc1 [Example 5, N-(4-(3-amino-1H-pyrazolo[4,3-b]pyridin-5-yl)-3-chlorophenyl)-4-methoxybenzenesulfonamide] |  |  |  | 0.909 µM | 
COc1ccc(S(=O)(=O)Nc2ccc(-c3ccc4[nH]nc(N)c4n3)c(Cl)c2)cc1OC [Example 79, N-(4-(3-amino-1H-pyrazolo[4,3-b]pyridin-5-yl)-3-chlorophenyl)-3,4-dimethoxybenzenesulfonamide] |  |  |  | 0.061 µM | 
